{"source": "PubChem BioAssay AID1259409", "about": "(Chemical Carcinogenesis Research Information System (CCRIS), 2018)", "origin": "cited, not measured here", "tested_on": "rodent chemically induced tumor inhibition, incidence and multiplicity", "assay": "CCRIS tumor inhibitor studies", "data": [{"smiles": "Cc1c(C)c2c(c(C)c1O)CCC(C)(COc1ccc(CC3SC(=O)NC3=O)cc1)O2", "note": "(stereo not drawn)", "values": [{"measurement": "tumour outcome (control, treated, inhibition, significance)", "setting": "Carcinogen: 4-NITROQUINOLINE 1-OXIDE, 56-57-5, Dose [Inhibitor]: 0, 30 PPM IN DIET FOR 22 WK BEGINNING 1 WK POST FINAL CARCINOGEN DOSE (STUDY DURATION: 31 WK), Route [Inhibitor]: ORAL, Species: RAT, Strain/Sex: F344/MALE, Target Tissue: Type of Lesion: TONGUE: PAPILLOMA, Dose [Carcinogen]: 20 PPM IN DRINKING WATER FOR 8 WK", "value": "3/24 (12.5%), 0/19 (0%), 100%, not significant"}, {"measurement": "tumour outcome (control, treated, inhibition, significance)", "setting": "Carcinogen: 4-NITROQUINOLINE 1-OXIDE, 56-57-5, Dose [Inhibitor]: 0, 30 PPM IN DIET FOR 22 WK BEGINNING 1 WK POST FINAL CARCINOGEN DOSE (STUDY DURATION: 31 WK), Route [Inhibitor]: ORAL, Species: RAT, Strain/Sex: F344/MALE, Target Tissue: Type of Lesion: TONGUE: SQUAMOUS CELL CARCINOMA, Dose [Carcinogen]: 20 PPM IN DRINKING WATER FOR 8 WK", "value": "11/24 (45.8%), 5/19 (26.3%), 42.6%, not significant"}, {"measurement": "tumour outcome (control, treated, inhibition, significance)", "setting": "Carcinogen: 4-NITROQUINOLINE 1-OXIDE, 56-57-5, Dose [Inhibitor]: 0, 100 PPM IN DIET FOR 22 WK BEGINNING 1 WK POST FINAL CARCINOGEN DOSE (STUDY DURATION: 31 WK), Route [Inhibitor]: ORAL, Species: RAT, Strain/Sex: F344/MALE, Target Tissue: Type of Lesion: TONGUE: PAPILLOMA, Dose [Carcinogen]: 20 PPM IN DRINKING WATER FOR 8 WK", "value": "3/24 (12.5%), 3/20 (15%), -20%, not significant"}, {"measurement": "tumour outcome (control, treated, inhibition, significance)", "setting": "Carcinogen: 4-NITROQUINOLINE 1-OXIDE, 56-57-5, Dose [Inhibitor]: 0, 100 PPM IN DIET FOR 22 WK BEGINNING 1 WK POST FINAL CARCINOGEN DOSE (STUDY DURATION: 31 WK), Route [Inhibitor]: ORAL, Species: RAT, Strain/Sex: F344/MALE, Target Tissue: Type of Lesion: TONGUE: SQUAMOUS CELL CARCINOMA, Dose [Carcinogen]: 20 PPM IN DRINKING WATER FOR 8 WK", "value": "11/24 (45.8%), 1/20 (5%), 89.1%, p< 0.005"}, {"measurement": "tumour outcome (control, treated, inhibition, significance)", "setting": "Carcinogen: AZOXYMETHANE (25843-45-2), Dose [Inhibitor]: 0, 0.05% ADMINISTERED 1 WK AFTER END OF DEXTRAN SODIUM SULFATE TREATMENT FOR 14 WKS (STUDY DURATION: 17 WKS), Route [Inhibitor]: DIET, Species: MOUSE, Strain/Sex: CD-1/FEMALE (10,10)/(10,10), Target Tissue: Type of Lesion: COLON: ADENOCARCINOMA, Dose [Carcinogen]: 10 MG/KG ONCE, Promoter: DEXTRAN SODIUM SULFATE (9011-18-1)", "value": "10/10 (100%), 4/10 (40%), 60%, p<0.01"}, {"measurement": "tumour outcome (control, treated, inhibition, significance)", "setting": "Carcinogen: AZOXYMETHANE (25843-45-2), Dose [Inhibitor]: 0, 0.05% ADMINISTERED 1 WK AFTER END OF DEXTRAN SODIUM SULFATE TREATMENT FOR 14 WKS (STUDY DURATION: 17 WKS), Route [Inhibitor]: DIET, Species: MOUSE, Strain/Sex: CD-1/FEMALE (10,10)/(10,10), Target Tissue: Type of Lesion: COLON: ADENOMA, Dose [Carcinogen]: 10 MG/KG ONCE, Promoter: DEXTRAN SODIUM SULFATE (9011-18-1)", "value": "10/10 (100%), 9/10 (90%), 10%, not significant"}, {"measurement": "tumour outcome (control, treated, inhibition, significance)", "setting": "Carcinogen: N-METHYL-N-NITROSOUREA [684-93-5], Dose [Inhibitor]: 0.15% IN DIET FROM WKS 10 TO 52 (STUDY DURATION: 52 WKS), Route [Inhibitor]: ORAL (DIET), Species: MOUSE, Strain/Sex: PEROXISOME PROLIFERATOR- ACTIVATED RECEPTOR (PPAR GAMMA +/+)/MALE (11,9)/(13,11), Target Tissue: Type of Lesion: STOMACH: CARCINOMA, Dose [Carcinogen]: 240 PPM IN DRINKING WATER ON ALTERNATE WKS OVER A 10 WK PERIOD", "value": "(5/9) 56%, (1/11) 9%, 84%, p<0.01"}, {"measurement": "tumour outcome (control, treated, inhibition, significance)", "setting": "Carcinogen: N-METHYL-N-NITROSOUREA [684-93-5], Dose [Inhibitor]: 0.15% IN DIET FROM WKS 10 TO 52 (STUDY DURATION: 52 WKS), Route [Inhibitor]: ORAL (DIET), Species: MOUSE, Strain/Sex: PEROXISOME PROLIFERATOR- ACTIVATED RECEPTOR (PPAR GAMMA +/-)/MALE (23,19)/(19,15), Target Tissue: Type of Lesion: STOMACH: CARCINOMA, Dose [Carcinogen]: 240 PPM IN DRINKING WATER ON ALTERNATE WKS OVER A 10 WK PERIOD", "value": "(17/19) 90%, (12/15) 80%, 11%, not significant"}]}, {"smiles": "O=[As]O", "values": [{"measurement": "tumour outcome (control, treated, inhibition, significance)", "setting": "Carcinogen: NONE USED, Dose [Inhibitor]: 10 PPM IN DRINKING WATER DAILY FOR DURATION OF STUDY (STUDY DURATION: 16 MO), Route [Inhibitor]: ORAL, Species: MOUSE, Strain/Sex: C3H/FEMALE, Target Tissue: Type of Lesion: MAMMARY GLAND: ADENOCARCINOMA, Promoter: NONE USED", "value": "82%, 27%, 67%, not calculated"}, {"measurement": "tumour outcome (control, treated, inhibition, significance)", "setting": "Carcinogen: NONE USED, Dose [Inhibitor]: 80 PPM IN DRINKING WATER DAILY STARTING AT AGE 1 MO AND CONTINUING FOR LIFE (STUDY DURATION: LIFE), Route [Inhibitor]: ORAL, Species: MOUSE, Strain/Sex: C3H/FEMALE, Target Tissue: Type of Lesion: MAMMARY GLAND: TUMOR, Promoter: NONE USED", "value": "82%, 40%, 51%, p 0.02"}]}, {"smiles": "CCOC(=O)/C=C(/C=C/C=C(C)/C=C/c1c(C)cc(OC)c(C)c1C)C(F)(F)F", "values": [{"measurement": "tumour outcome (control, treated, inhibition, significance)", "setting": "Carcinogen: 7,12-DIMETHYLBENZ[A]ANTHRACENE, 57-97-6, Dose [Inhibitor]: 140 NMOL IN 0.2 ML ACETONE 2/WK (D 1 AND D 4 OF EACH WK) 1 HR BEFORE EACH PROMOTER APPLICATION STARTING 14 D AFTER CARCI, Route [Inhibitor]: DERMAL, Species: MOUSE, Strain/Sex: CD-1/FEMALE, Target Tissue: Type of Lesion: SKIN: PAPILLOMA, Dose [Carcinogen]: 0.2 UMOL IN 0.2 ML ACETONE ONCE, Promoter: 12-O-TETRADECANOYLPHORBOL-13-ACETATE, 16561-29-8", "value": "90%, 100%, -11%, not significant"}]}, {"smiles": "CCCC/C=C\\C=C/O[C@@H](CC)CCC(CCC)CCCCCCCC(=O)O[C@]1(O)[C@]2(O)O[C@H](CO[C@H]3O[C@H](CO)[C@H](O)[C@H](O)[C@H]3O)[C@H](O)[C@@]1(O)O2", "note": "(stereo partly drawn)", "values": [{"measurement": "tumour outcome (control, treated, inhibition, significance)", "setting": "Carcinogen: 7,12-DIMETHYLBENZ[A]ANTHRACENE, 57-97-6, Dose [Inhibitor]: 0, 85 NMOL IN 0.1 ML ACETONE 2/WK FOR 20 WK APPLIED 1 HR PRIOR TO EACH PROMOTER DOSE (STUDY DURATION: 21 WK), Route [Inhibitor]: DERMAL, Species: MOUSE, Strain/Sex: ICR/FEMALE, Target Tissue: Type of Lesion: SKIN: PAPILLOMA, Dose [Carcinogen]: 390 NMOL IN 0.1 ML ACETONE ONCE, Promoter: 12-O-TETRADECANOYLPHORBOL-13-ACETATE, 16561-29-8", "value": "100%, 68%, 32%, p<0.05"}]}, {"smiles": "C/C(=C\\c1ccc(C(=O)O)cc1)c1ccc2c(c1)SCCC2(C)C", "values": [{"measurement": "tumour outcome (control, treated, inhibition, significance)", "setting": "Carcinogen: 7,12-DIMETHYLBENZ[A]ANTHRACENE, 57-97-6, Dose [Inhibitor]: 1.7 NMOL IN 0.2 ML ACETONE 1 HR PRIOR TO EACH PROMOTER DOSE FOR 12 WK (STUDY DURATION: 14 WK), Route [Inhibitor]: DERMAL, Species: MOUSE, Strain/Sex: SENCAR/FEMALE, Target Tissue: Type of Lesion: SKIN: PAPILLOMA, Dose [Carcinogen]: 200 NMOL IN 0.2 ML ACETONE ONCE, Promoter: 12-O-TETRADECANOYLPHORBOL-13-ACETATE, 16561-29-8", "value": "100%, 70%, 30%, not calculated"}, {"measurement": "tumour outcome (control, treated, inhibition, significance)", "setting": "Carcinogen: 7,12-DIMETHYLBENZ[A]ANTHRACENE, 57-97-6, Dose [Inhibitor]: 1.7 NMOL IN 0.2 ML ACETONE 1 HR PRIOR TO EACH PROMOTER DOSE FOR 20 WK (STUDY DURATION: 22 WK), Route [Inhibitor]: DERMAL, Species: MOUSE, Strain/Sex: CD-1/FEMALE, Target Tissue: Type of Lesion: SKIN: PAPILLOMA, Dose [Carcinogen]: 200 NMOL IN 0.2 ML ACETONE ONCE, Promoter: 12-O-TETRADECANOYLPHORBOL-13-ACETATE, 16561-29-8", "value": "94%, 67%, 29%, not calculated"}, {"measurement": "tumour outcome (control, treated, inhibition, significance)", "setting": "Carcinogen: 7,12-DIMETHYLBENZ[A]ANTHRACENE, 57-97-6, Dose [Inhibitor]: 17 NMOL IN 0.2 ML ACETONE 1 HR PRIOR TO EACH PROMOTER DOSE FOR 12 WK (STUDY DURATION: 14 WK), Route [Inhibitor]: DERMAL, Species: MOUSE, Strain/Sex: SENCAR/FEMALE, Target Tissue: Type of Lesion: SKIN: PAPILLOMA, Dose [Carcinogen]: 200 NMOL IN 0.2 ML ACETONE ONCE, Promoter: 12-O-TETRADECANOYLPHORBOL-13-ACETATE, 16561-29-8", "value": "100%, 72%, 28%, not calculated"}, {"measurement": "tumour outcome (control, treated, inhibition, significance)", "setting": "Carcinogen: 7,12-DIMETHYLBENZ[A]ANTHRACENE, 57-97-6, Dose [Inhibitor]: 17 NMOL IN 0.2 ML ACETONE 1 HR PRIOR TO EACH PROMOTER DOSE FOR 20 WK (STUDY DURATION: 22 WK), Route [Inhibitor]: DERMAL, Species: MOUSE, Strain/Sex: CD-1/FEMALE, Target Tissue: Type of Lesion: SKIN: PAPILLOMA, Dose [Carcinogen]: 200 NMOL IN 0.2 ML ACETONE ONCE, Promoter: 12-O-TETRADECANOYLPHORBOL-13-ACETATE, 16561-29-8", "value": "94%, 33%, 65%, not calculated"}, {"measurement": "tumour outcome (control, treated, inhibition, significance)", "setting": "Carcinogen: 7,12-DIMETHYLBENZ[A]ANTHRACENE, 57-97-6, Dose [Inhibitor]: 170 NMOL IN 0.2 ML ACETONE 1 HR PRIOR TO EACH PROMOTER DOSE FOR 12 WK (STUDY DURATION: 14 WK), Route [Inhibitor]: DERMAL, Species: MOUSE, Strain/Sex: SENCAR/FEMALE, Target Tissue: Type of Lesion: SKIN: PAPILLOMA, Dose [Carcinogen]: 200 NMOL IN 0.2 ML ACETONE ONCE, Promoter: 12-O-TETRADECANOYLPHORBOL-13-ACETATE, 16561-29-8", "value": "100%, 0%, 100%, not calculated"}, {"measurement": "tumour outcome (control, treated, inhibition, significance)", "setting": "Carcinogen: 7,12-DIMETHYLBENZ[A]ANTHRACENE, 57-97-6, Dose [Inhibitor]: 170 NMOL IN 0.2 ML ACETONE 1 HR PRIOR TO EACH PROMOTER DOSE FOR 20 WK (STUDY DURATION: 22 WK), Route [Inhibitor]: DERMAL, Species: MOUSE, Strain/Sex: CD-1/FEMALE, Target Tissue: Type of Lesion: SKIN: PAPILLOMA, Dose [Carcinogen]: 200 NMOL IN 0.2 ML ACETONE ONCE, Promoter: 12-O-TETRADECANOYLPHORBOL-13-ACETATE, 16561-29-8", "value": "94%, 0%, 100%, not calculated"}]}]}
